Structures can show the parent of a compound that is named as a salt.
The compounds below were run on MCh-induced bronchoconstriction (assay: Einthoven assay: bronchoprotection against methacholine (MCh)-induced bronchoconstriction). Conditions: rat, 100 μg by inhalation, 24 h after administration.
Assay type: in vivo
Procedure: This assay measures the ability of a test compound to provide bronchoprotection against methacholine (MCh)-induced bronchoconstriction in a rat. Male Sprague-Dawley rats (Harlan, Indianapolis, Ind.), weighing between 200 g and 350 g, were used for all studies. Test compound or vehicle (sterile deionized water) were dosed by inhalation (IH) over a 10 min period in a pie shaped inhalation chamber (R+S Molds, San Carlos, Calif.) using 5 mL of dosing solution. […] Rats were dosed with 100 μg of test compound unless otherwise indicated. At predetermined time points, rats were anesthetized with an intraperitoneal (IP) injection of 120 mg/kg inactin (thiobutabarbital). A supplemental dose (40 mg/kg, IP) was administered if the animal responded to physical stimuli (e.g. toe pinch). The surgical site was shaved and a 1-2 cm midline incision of the ventral aspect of the neck was made. The jugular vein was isolated and cannulated with a saline-filled polyethylene catheter (PE-50) to allow IV infusion of MCh. Trachea was dissected free and cannulated with a 14G needle (#NE-014, Small Parts, Miami Lakes, Fla.). After placement of the tracheal cannula, each rat was ventilated using a respirator (Model 683, Harvard Apparatus, Inc., MA) set at a stroke volume of 1 mL/100 g body weight (but not exceeding 2.5 mL volume) and a rate of 90 strokes per minute. A T-connector was placed along the respirator expiratory tubing to allow for measurement of changes in ventilation pressure (VP) using a Biopac transducer that was connected to a Biopac […]) pre-amplifier. Body temperature was maintained at 37° C. using a heating pad. Changes in VP were recorded using the Acknowledge Data Collection Software (Santa Barbara, Calif.). Baseline values were collected for at least 2.5 min. Rats were then challenged with non-cumulative intravenous (IV) infusions of 40 and 80 μg/kg MCh. MCh was infused intravenously for 2.5 minutes from a syringe pump (sp210iw, World Precision Instruments, Inc., Sarasota, Fla.) at a rate of 2 mL/kg/min, with a 2 minute interval between the two doses of MCh. Changes in ventilation pressure (cm H2O) in treated animals are expressed as % inhibition of MCh response relative to control animals. Other bronchoconstrictors, such as histamine and acetylcholine, can be used in place of MCh in this assay. Additionally, guinea pigs can be used instead of rats. […] Inhibition greater than or equal to 30 percent at 24 h is indicative of a long duration of action.

SMILES	Broncho. at 24 h
CN(CCCC(=O)Nc1cccc(CCNC[C@H](O)c2ccc(O)c3[nH]c(=O)ccc23)c1)C(=O)CCN1CCC(OC(=O)Nc2ccccc2-c2ccccc2)CC1 [Compound I-7, Biphenyl-2-ylcarbamic Acid 1-(2-{[3-(3-{2-[(R)-2-Hydroxy-2-(8-hydroxy-2-oxo-1,2-dihydroquinolin-5-yl)ethylamino]ethyl}phenylcarbamoyl)-propyl]methylcarbamoyl}ethyl)piperidin-4-yl Ester Ditrifluoroacetic Acid Salt]	Yes (Bronchoprotective effect present at 24 h, e.g., ≧30 % inhibition of the MCh response at 24 h in the rat Einthoven assay (100 μg))
C[C@@H](Cc1cccc(CC(=O)NCCCN(C)C(=O)CCN2CCC(OC(=O)Nc3ccccc3-c3ccccc3)CC2)c1)NC[C@H](O)c1ccc(O)c2[nH]c(=O)ccc12 [Compound I-13, Biphenyl-2-ylcarbamic Acid 1-[2-({3-[2-(3-{(S)-2-[(R)-2-Hydroxy-2-(8-hydroxy-2-oxo-1,2-dihydroquinolin-5-yl)ethylamino]propyl}phenyl)acetylamino]-propyl}methylcarbamoyl)ethyl]piperidin-4-yl Ester Ditrifluoroacetic Acid Salt]	Yes (Bronchoprotective effect present at 24 h, e.g., ≧30 % inhibition of the MCh response at 24 h in the rat Einthoven assay (100 μg))
CN(CCCCC(=O)Nc1ccc(CNC[C@H](O)c2ccc(O)c3[nH]c(=O)ccc23)cc1)C(=O)CCN1CCC(OC(=O)Nc2ccccc2-c2ccccc2)CC1 [Compound I-14, Biphenyl-2-ylcarbamic Acid 1-(2-{[4-(4-{[(R)-2-hydroxy-2-(8-hydroxy-2-oxo-1,2-dihydroquinolin-5-yl)ethylamino]methyl}phenylcarbamoyl)-butyl]methylcarbamoyl}ethyl)piperidin-4-yl Ester Ditrifluoroacetic Acid Salt]	Yes (Bronchoprotective effect present at 24 h, e.g., ≧30 % inhibition of the MCh response at 24 h in the rat Einthoven assay (100 μg))
Cc1cc(NC(=O)CCCCN(C)C(=O)CCN2CCC(OC(=O)Nc3ccccc3-c3ccccc3)CC2)c(C)cc1CNC[C@H](O)c1ccc(O)c2[nH]c(=O)ccc12 [Compound I-18, Biphenyl-2-ylcarbamic Acid 1-(2-{[4-(4-{[(R)-2-Hydroxy-2-(8-hydroxy-2-oxo-1,2-dihydroquinolin-5-yl)ethylamino]methyl}-2,5-dimethylphenylcarbamoyl)butyl]methylcarbamoyl}ethyl)piperidin-4-yl Ester Ditrifluoroacetic Acid Salt]	Yes (Bronchoprotective effect present at 24 h, e.g., ≧30 % inhibition of the MCh response at 24 h in the rat Einthoven assay (100 μg))
CN(C(=O)CCN1CCC(OC(=O)Nc2ccccc2-c2ccccc2)CC1)c1cccc(C(=O)Nc2ccc(CCNC[C@H](O)c3ccc(O)c4[nH]c(=O)ccc34)cc2)c1 [Compound I-34, Ditrifluoroacetate]	Yes (Bronchoprotective effect present at 24 h, e.g., ≧30 % inhibition of the MCh response at 24 h in the rat Einthoven assay (100 μg))
Cc1ccc(C(=O)Nc2ccc(CCNC[C@H](O)c3ccc(O)c4[nH]c(=O)ccc34)cc2)cc1N(C)C(=O)CCN1CCC(OC(=O)Nc2ccccc2-c2ccccc2)CC1 [Compound I-35]	Yes (Bronchoprotective effect present at 24 h, e.g., ≧30 % inhibition of the MCh response at 24 h in the rat Einthoven assay (100 μg))
CC(Cc1cccc(CCNC(=O)Cc2ccc(N(C)C(=O)CCN3CCC(OC(=O)Nc4ccccc4-c4ccccc4)CC3)cc2)c1)NC[C@H](O)c1ccc(O)c2[nH]c(=O)ccc12 (some centres unmarked) [Compound I-85, ditrifluoroacetic acid salt]	Yes (Bronchoprotective effect present at 24 h, e.g., ≧30 % inhibition of the MCh response at 24 h in the rat Einthoven assay (100 μg))

Same assay, conditions: rat, 100 μg by inhalation, 24 h after administration; ditrifluoroacetic acid salt

SMILES	Broncho. at 24 h
CC(Cc1ccc(CNC(=O)Cc2ccc(N(C)C(=O)CCN3CCC(OC(=O)Nc4ccccc4-c4ccccc4)CC3)cc2)cc1)NC[C@H](O)c1ccc(O)c2[nH]c(=O)ccc12 (stereo partly drawn) [Compound I-66, Biphenyl-2-ylcarbamic acid 1-[2-({4-[(4-{2-[(R)-2-hydroxy-2-(8-hydroxy-2-oxo-1,2-dihydroquinolin-5-yl)-ethylamino]propyl}benzylcarbamoyl)methyl]phenyl}-methylcarbamoyl)ethyl]piperidin-4-yl ester ditrifluoroacetic acid salt]	No

From patent US9682957B2 (Theravance Respiratory Company, LLC, priority 2009, dated 2017)
